According to patent US7713971B2, “1,2,4-triazine derivatives, preparation and use thereof in human therapy” (Pierre Fabre Medicament, priority 2005, dated 2010):
Read-outs that look alike come from different tables or passages of the source.

How the values were obtained:
[1] = tested on: insulin-resistant male rat (Ico: ZUCKER-fa/fa); assay: Normalization of metabolic parameters (cholesterol, plasma triglycerides) in insulin-resistant rat; assay type: in vivo; conditions: oral route, once per day for four days, Zucker fa/fa rat unfed 16-18 hours; for change in vivo at 2.5 mg/kg / change in vivo at 10 mg/kg: 96 h
Protocol: Normalization of metabolic parameters (cholesterol, plasma triglycerides) in an insulin-resistant male rat (Ico: ZUCKER-fa/fa), unfed for 16-18 hours, after treatment by oral route, once per day for four days, with the compounds to be evaluated or their administration vehicle.
These metabolic parameters are measured by spectrophotometry at the beginning and the end of each animal's treatment.

human PPARγ = target: T1, human PPARγ (Homo sapiens, UniProt P37231); assay: Reporter gene transactivation, hPPAR-GAL4 gamma; assay type: cell-based; conditions: transfected Cos-7 cells, Gal-4 luciferase reporter, 24 hours treatment
T1 construct: expressed in transfected cells; host or cells: Cos-7 cells (ATCC, CRL-1651)
T1 sequence (P37231 238-503 limits assumed): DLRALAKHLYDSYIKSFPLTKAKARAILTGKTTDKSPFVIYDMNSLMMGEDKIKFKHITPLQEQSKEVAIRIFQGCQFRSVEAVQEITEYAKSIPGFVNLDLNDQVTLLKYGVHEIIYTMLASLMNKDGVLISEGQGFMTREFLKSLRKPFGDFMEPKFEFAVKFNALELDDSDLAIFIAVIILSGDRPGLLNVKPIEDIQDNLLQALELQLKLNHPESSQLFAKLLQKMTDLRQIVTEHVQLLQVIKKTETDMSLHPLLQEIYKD

human PPARδ = target: T2, human PPARδ (Homo sapiens, UniProt Q03181); assay: Reporter gene transactivation, hPPAR-GAL4 delta; assay type: cell-based; conditions: transfected Cos-7 cells, Gal-4 luciferase reporter, 24 hours treatment
T2 construct: expressed in transfected cells; host or cells: Cos-7 cells (ATCC, CRL-1651)
T2 sequence (Q03181 211-439 limits assumed): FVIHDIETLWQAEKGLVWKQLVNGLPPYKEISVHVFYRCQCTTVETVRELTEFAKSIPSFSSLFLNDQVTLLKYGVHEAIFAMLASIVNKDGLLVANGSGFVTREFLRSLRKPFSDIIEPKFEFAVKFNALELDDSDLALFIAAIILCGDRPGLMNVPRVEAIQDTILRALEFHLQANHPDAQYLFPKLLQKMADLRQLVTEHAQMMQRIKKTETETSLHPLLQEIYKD

human PPARα = target: T3, human PPARα (Homo sapiens, UniProt Q07869); assay: Reporter gene transactivation, hPPAR-GAL4 alpha; assay type: cell-based; conditions: transfected Cos-7 cells, Gal-4 luciferase reporter, 24 hours treatment
T3 construct: expressed in transfected cells; host or cells: Cos-7 cells (ATCC, CRL-1651)
T3 sequence (Q07869 239-466 limits assumed): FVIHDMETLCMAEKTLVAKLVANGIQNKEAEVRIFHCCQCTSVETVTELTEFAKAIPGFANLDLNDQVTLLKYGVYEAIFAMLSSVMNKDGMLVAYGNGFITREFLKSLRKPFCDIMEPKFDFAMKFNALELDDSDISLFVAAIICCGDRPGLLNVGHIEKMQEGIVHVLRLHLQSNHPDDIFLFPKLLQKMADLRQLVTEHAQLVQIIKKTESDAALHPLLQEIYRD

[2] = at 2.5 mg/kg, read-out: Plasma cholesterol
[3] = at 10 mg/kg, read-out: Plasma cholesterol
[4] = at 10 mg/kg, read-out: Plasma triglycerides

Row | SMILES | change in vivo at 2.5 mg/kg [1, 2] [%] | change in vivo at 10 mg/kg [1, 3] [%] | change in vivo at 10 mg/kg [1, 4] [%] | Plasma triglycerides ([1]; at 2.5 mg/kg) | EC50 (human PPARγ) [nM] | EC50 (human PPARδ) [nM] | EC50 (human PPARα) [nM] | Plasma triglycerides ([1]; at 10 mg/kg) | Plasma cholesterol ([1]; at 2.5 mg/kg) | change in vivo at 2.5 mg/kg ([1]; at 2.5 mg/kg, read-out: Plasma triglycerides) [%]
1 | CCCCCCCN(CCc1ccc(OC(C)(C)C(=O)O)cc1)c1nn(C)c(=O)n(C)c1=O [Example 113, 2-(4-{2-[(2,4-Dimethyl-3,5-dioxo-2,3,4,5-tetrahydro-[1,2,4]triazin-6-yl)-heptyl-amino]-ethyl}-phenoxy)-2-methyl-propionic Acid] | -30 | -40 | -26 | inactive at 2.5 | 3000 to 10000 | 300 to 1000 | 300 to 1000 |  |  | 
2 | CCOC(=O)C(C)(C)Oc1cccc(CCCCNc2nn(CCCC(F)(F)F)c(=O)n(CC=C(C)C)c2=O)c1 [Example 76, Ethyl 2-methyl-2-(3-{4-[4-(3-methyl-but-2-enyl)-3,5-dioxo-2-(4,4,4-trifluoro-butyl)-2,3,4,5-tetrahydro-[1,2,4]triazin-6-ylamino]-butyl}-phenoxy)-propionate] | -16 | -22 | -7 |  | 1000 to 3000 | 3000 to 10000 | 10 to 30 |  |  | 
3 | CCOC(=O)C(C)(C)Oc1ccc(OCCNc2nn(CCCC(F)(F)F)c(=O)n(CCCC(F)(F)F)c2=O)cc1 [Example 41, Ethyl 2-(4-{2-[3,5-dioxo-2,4-bis-(4,4,4-trifluoro-butyl)-2,3,4,5-tetrahydro-[1,2,4]triazin-6-ylamino]-ethoxy}-phenoxy)-2-methyl-propionate] |  | -28 |  |  | ~10000 | 1000 to 3000 | ~100 | inactive at 10 |  | 
4 | CCCCCCCn1nc(NCCCCc2cccc(OC(C)(C)C(=O)O)c2)c(=O)n(CCCC(F)(F)F)c1=O [Example 84, 2-(3-{4-[2-Heptyl-3,5-dioxo-4-(4,4,4-trifluoro-butyl)-2,3,4,5-tetrahydro-[1,2,4]triazin-6-ylamino]-butyl}-phenoxy)-2-methyl-propionic Acid] |  | -13 | -7 | inactive at 2.5 | ~300 | 1000 to 3000 | 3 to 10 |  | inactive at 2.5 | 
5 | Cn1nc(NCCCCc2cccc(SC(C)(C)C(=O)O)c2)c(=O)n(CCCC(F)(F)F)c1=O [Example 96, 2-Methyl-2-(3-{4-[2-methyl-3,5-dioxo-4-(4,4,4-trifluoro-butyl)-2,3,4,5-tetrahydro-[1,2,4]triazin-6-ylamino]-butyl}-phenylsulfanyl)-propionic Acid] | -28 | -21 | -60 |  | ~10000 | > 10000 | 30 to 100 |  |  | -26
